Values quoted from earlier work, collected in patent US20050042177A1, “Novel compositions of sildenafil free base” (Elan Pharma International Ltd., priority 2003, published 2005).

Legend:
PDE6 = conditions: PDE5 versus PDE6
[1] = 100 mg oral dose, healthy adult males

| Compound | Tmax [1] | mean Cmax [1] | t1/2 [1] | absolute bioavailability (in vivo) | potency for PDE5 as compared to PDE6 (PDE6) |
| --- | --- | --- | --- | --- | --- |
| CCCc1nn(C)c2c(=O)[nH]c(-c3cc(S(=O)(=O)N4CCN(C)CC4)ccc3OCC)nc12.O=C(O)CC(O)(CC(=O)O)C(=O)O [Sildenafil citrate, 1-[[3-(6,7-dihydro-1-methyl-7-oxo-3-propyl-1H-pyrazolo[4,3-d]pyrimidin-5-yl)-4-ethoxyphenyl]sulfonyl]-4 methylpiperazine citrate] | 1 h | 440 ng/mL | about 4 hours | 40% |  |
| CCCc1nn(C)c2c(=O)[nH]c(-c3cc(S(=O)(=O)N4CCN(C)CC4)ccc3OCC)nc12 [Sildenafil, 1-[[3-(6,7-dihydro-1-methyl-7-oxo-3-propyl-1H-pyrazolo[4,3-d]pyrimidin-5-yl)-4-ethoxyphenyl]sulfonyl]-4-methylpiperazine] |  |  |  |  | approximately 10 fold |
